Laboratory results taken from PMC5986797, “Laminin heparin-binding peptides bind to several growth factors and enhance diabetic wound healing” (Nature Communications, 2018).
Entries after “also recorded” stand apart in the source; their conditions may differ.

What was measured:
GF [1] = assay: ELISA: GF binding to laminin peptides, stated for the tested GFs together; set-up: species or system human; settings: 10 µg/mL laminin peptide coated, 1 μg/mL GF, n = 4
[2] = ELISA: biotinylated heparin binding to laminin peptides; set-up: key to Interaction with Heparin: ++ indicates high affinities; + indicates medium/low affinities; settings: for binding to heparin (ELISA): 10 µg/mL laminin peptide coated (legend; method 1 μg/mL), 10 µg/mL biotinylated heparin, vs BSA-coated wells, n = 4; for Interaction with Heparin: summary table
Protocol: (§1) ELISA tests were performed as described above. In brief, […] recombinant protein, laminin alpha 4 LG domain recombinant protein (R&D Systems), laminin alpha 5 LG domain recombinant protein (LD BioPharma), or laminin peptide (sequences are described in Supplementary Table 1, chemically synthesized by Genscript) in PBS for 2 h at 37 °C. A concentration of 1 μg/mL of BSA served as non-binding protein control. After blocking with 2% BSA PBS-0.05% Tween 20 (PBS-T) solution, 1 μg/mL of the recombinant human proteins (VEGF-A121, VEGF-A165, PlGF-1, PlGF-2, PDGF-BB, or FGF-2) or 10 μg/mL of biotinylated heparin (Sigma-Aldrich) were added. Bound GF was detected with biotinylated antibodies for human VEGF-A, PlGF, PDGF-BB (R&D Systems, Catalog No. DY220, 1:180 dilution), or FGF-2 (R&D Systems). The antibodies were detected by streptavidin-HRP (R&D Systems).

[3] = tested on: recombinant human syndecan-1, syndecan-2, syndecan-3, and syndecan-4; assay: ELISA: syndecan binding to laminin peptides; set-up: key to Interaction with Syndecan: ++ indicates high affinities; + indicates medium/low affinities; settings: for binding to syndecans 1–4 (ELISA): 10 µg/mL laminin peptide coated (legend; method 1 μg/mL), 1 μg/mL histidine-tagged syndecan, vs BSA-coated wells, n = 8; for Interaction with Syndecan: summary table
Protocol: ELISA tests were performed as described above. […] A concentration of 1 μg/mL of BSA served as non-binding protein control. After blocking with 2% BSA PBS-T solution, 1 μg/mL of the recombinant human syndecan-1, syndecan-2, syndecan-3, and syndecan-4 (all syndecan proteins are histidine-tagged; SinoBiological) were added. Bound GF was detected with anti-histidine tag antibody (BioLegend, Catalog No. 562504, 1:1000 dilution).

[4] = tested on: GF (VEGF-A165, PlGF-2, FGF-2) binding to laminin; assay: Inhibition of laminin–GF binding by heparin (ELISA); set-up: species or system human; settings: 10 µM heparin; 10 µg/mL laminin coated; 1 μg/mL VEGF-A165, PlGF-2 or FGF-2; n = 4
Protocol: ELISA plates (med-binding) were coated with 10 μg/mL laminin isoforms (–111, –211, –221, –411, –421, –511, and –521) in PBS for 2 h at 37 °C. Then, wells were blocked with 2% BSA-containing PBS-T and further incubated with 1 μg/mL each of VEGF-A165, PlGF-2, or FGF-2 for 60 min at RT with 10 μM heparin. Next, the wells were incubated with biotinylated anti-VEGF (R&D Systems, Catalog No. DY293B, 1:60 dilution), anti-PlGF (R&D Systems, Catalog No. DY264, 1:180 dilution), or anti-FGF-2 (R&D Systems, Catalog No. DY233, 1:60 dilution) antibodies. The antibodies were detected by streptavidin-HRP (R&D Systems).

PDGF-BB [5] = assay: ELISA: PDGF-BB binding to laminin LG domain / laminin peptide; set-up: species or system human; settings: 10 µg/mL laminin peptide coated (legend; method 1 μg/mL); 1 μg/mL GF; vs BSA-coated wells; n = 4
Protocol: (§2) ELISA tests were performed as described above. In brief, ELISA plates were coated with 1 μg/mL of laminin alpha 3 LG domain recombinant protein, laminin alpha 4 LG domain recombinant protein (R&D Systems), laminin alpha 5 LG domain recombinant protein (LD BioPharma), or laminin peptide (sequences are described in Supplementary Table 1, chemically synthesized by Genscript) in PBS for 2 h at 37 °C. A concentration of 1 μg/mL of BSA served as non-binding protein control. After blocking with 2% BSA PBS-0.05% Tween 20 (PBS-T) solution, 1 μg/mL of the recombinant human proteins (VEGF-A121, VEGF-A165, PlGF-1, PlGF-2, PDGF-BB, or FGF-2) or 10 μg/mL of biotinylated heparin (Sigma-Aldrich) were added. Bound GF was detected with biotinylated antibodies for human VEGF-A, PlGF, PDGF-BB (R&D Systems, Catalog No. DY220, 1:180 dilution), or FGF-2 (R&D Systems). The antibodies were detected by streptavidin-HRP (R&D Systems).

VEGF-A165 = assay: ELISA: VEGF-A165 binding to laminin LG domain / laminin peptide; set-up: species or system human; settings: 10 µg/mL laminin peptide coated (legend; method 1 μg/mL); 1 μg/mL GF; vs BSA-coated wells; n = 4
Protocol: as §1

PlGF-2 [6] = assay: ELISA: PlGF-2 binding to laminin LG domain / laminin peptide; set-up: species or system human; settings: 10 µg/mL laminin peptide coated (legend; method 1 μg/mL); 1 μg/mL GF; vs BSA-coated wells; n = 4
Protocol: as §2

GF [7] = assay: ELISA: GF binding to laminin peptides, stated for the tested GFs together; set-up: species or system human; key: ++ indicates high affinities; + indicates medium/low affinities; settings: summary table
Protocol: as §2

FGF-2 = assay: ELISA: FGF-2 binding to laminin LG domain / laminin peptide; set-up: species or system human; settings: 10 µg/mL laminin peptide coated (legend; method 1 μg/mL); 1 μg/mL GF; vs BSA-coated wells; n = 4
Protocol: as §2

human lung fibroblasts = assay: Cell adhesion assay, fibroblasts; type: cell-based; set-up: key to Cell adhesion Fibroblast: ++ indicates high affinities; + indicates medium/low affinities; settings: for Cell adhesion Fibroblast: summary table; for fibroblast attachment on peptide-coated surfaces: without EDTA, 1 μg/mL peptide coated, 3000 cells/well, 30 min, 37 °C, FGM-2, 1% FBS, CyQUANT, vs BSA, n = 10
Protocol: (§3) A total of 96-well plates (non-tissue culture treated, Greiner Bio-One) were pre-coated with 1 μg/mL with laminin HBD peptides in PBS for 2 h at 37 °C, followed by blocking with 2% BSA PBS for 1 h at RT. Cell adhesion assays were performed using human lung fibroblasts (Lonza) in FGM-2 medium (Lonza) or human umbilical vein endothelial cells (HUVEC; Lonza) in EGM-2 medium (Lonza) supplemented with 1% fetal bovine serum (FBS) and 100 µg/mL VEGF-A165, with or without 5 mM EDTA (Sigma-Aldrich). Cells were plated at 3000 cells/well on laminin peptide pre-coated plates and incubated for 30 min at 37 °C, 5% CO2. Then, the medium was removed, and wells were quickly washed three times with PBS. Cell numbers were quantified using a CyQUANT assay, according to the manufacturer’s instructions (Invitrogen). All cell lines were checked for mycoplasma contamination and used in passages from 5 to 8.

[8] = tested on: human umbilical vein endothelial cells (HUVEC); assay: Cell adhesion assay, HUVEC; type: cell-based; set-up: key to Cell adhesion HUVEC: ++ indicates high affinities; + indicates medium/low affinities
Protocol: as §3, with “Cell adhesion assays were performed using human lung fibroblasts (Lonza) in FGM-2 medium (Lonza) or human umbilical vein endothelial cells (HUVEC; Lonza) in EGM-2 medium (Lonza) supplemented with 1% fetal bovine serum (FBS) and 100 µg/mL VEGF-A165, with or without 5 mM EDTA (Sigma-Aldrich).” left out

HUVEC cells = assay: Migration assay (transwell); type: cell-based, human; settings: 0.1 μM peptide, in the presence and absence of 30 ng/mL VEGF-A165; 6 h; n = 4
Protocol: A QCM 24-Well Colorimetric Cell Migration Assay Kit was used to perform migration assay. Both sides of inserts were coated with 0.1 μM of bovine collagen I (C4243, Sigma-Aldrich) for 1 h at 37 °C. Then, the inserts were washed with water, dried in a laminar flow cabinet, and disposed on 24-well cell culture plate covers. Solutions containing 30 ng/mL of VEGF-A165 preincubated with or without 0.1 μM of LAMA3_3043–3067 peptide in a medium (MCDB-131, 0.05% BSA) were added to the bottom side of the transwell (500 μL/well). Directly thereafter, HUVEC cells (Lonza) in a medium containing 0.05% BSA (300 μL/transwell, 4 × 10^4 cells/transwell) were added to the transwell upper parts. After 6 h, migrated cells were stained and absorbance at 560 nm was measured according to the manufacturer’s instructions.

PDGF-BB [9] = assay: SPR: laminin-521 against PDGF-BB; type: binding, human; settings: laminin-521 immobilized (~2000 RU) on C1 chip, GF flown over, Langmuir fit
Protocol: (§4) SPR measurements were made with a Biacore 3000 SPR system (GE Healthcare). Laminin-521 or laminin LAMA3_2928–3150 was immobilized via amine coupling on a C1 chip (GE Healthcare) for ~2000 or ~1000 resonance units (RU), respectively, according to the manufacturer’s instructions. VEGF-A165, PDGF-BB, or PlGF-2 was flown at increasing concentrations in the running buffer (0.01 M HEPES, pH 7.4, 0.15 M NaCl, and 0.005% v/v surfactant P20) at 20 μL/min. The sensor chip was regenerated with 50 mM NaOH for every cycle. Specific bindings of GFs to laminin were calculated by comparison to a non-functionalized channel used as a reference. Experimental results were fitted with Langmuir binding kinetics using BIAevaluation software (GE Healthcare).

PlGF-2 [10] = assay: SPR: laminin-521 against PlGF-2; type: binding, human; settings: laminin-521 immobilized (~2000 RU) on C1 chip, GF flown over, Langmuir fit
Protocol: as §4

Row | Substance | binding to the tested GFs (ELISA) (GF [1]) | binding to heparin (ELISA) [2] | binding to syndecans 1–4 (ELISA) [3] | Interaction with Syndecan [3] | binding to PDGF-BB (ELISA), peptides (PDGF-BB [5]) | binding to VEGF-A165 (ELISA), peptides (VEGF-A165) | binding to PlGF-2 (ELISA), peptides (PlGF-2 [6]) | Interaction with Heparin [2] | Interaction with GF (GF [7]) | binding to FGF-2 (ELISA), peptides (FGF-2) | Cell adhesion Fibroblast (human lung fibroblasts) | fibroblast attachment on peptide-coated surfaces (human lung fibroblasts) | also measured
1 | ARKASRRSRQPARH [LAMA5_3312–3325, chemically synthesized human laminin LAMA5 linker peptide, 14 aa, subdomain of LAMA5_3300–3330] | did not show particular binding to any tested GF | did not bind to heparin | weak binding | + |  |  |  |  |  |  |  |  | 
2 | heparin |  |  |  |  |  |  |  |  |  |  |  |  | inhibition of GF binding to laminin by excess heparin [4]: inhibited
3 | RQRSRPGRWHKVSVRWEKNR [LAMA5_3417–3436, chemically synthesized human laminin LAMA5 LG4 peptide, 20 aa] |  | bound to heparin | significant binding | ++ | bound | bound | bound | ++ | ++ | bound | + | enhancement of fibroblast attachment | 
4 | RLVFALGTDGKKLRIKSKEKCNDGK [LAMA3_3043–3067, chemically synthesized human laminin LAMA3 LG4 HBD peptide, 25 aa] |  | bound to heparin | significant binding | ++ | bound | bound | bound | ++ | ++ | bound | ++ | enhancement of fibroblast attachment | HUVEC attachment in the presence of EDTA ([8]; 5 mM EDTA, 1 μg/mL peptide coated, 3000 cells/well, 30 min, 37 °C, CyQUANT, n = 10): even in the presence of EDTA; Cell adhesion HUVEC ([8]; summary table): ++; HUVEC attachment on peptide-coated surfaces ([8]; without EDTA, 1 μg/mL peptide coated, 3000 cells/well, 30 min, 37 °C, 100 ng/mL VEGF-A165, 1% FBS, CyQUANT, n = 10): promoted HUVEC attachment; degree of migration of HUVEC cells, peptide (HUVEC cells): did not increase the degree of cell migration
5 | TLPDVGLELEVR [LAMA5_3539–3550, chemically synthesized human laminin LAMA5 LG5 peptide, 12 aa] | significantly bound to all tested GFs | did not show binding to heparin; also recorded: do not show heparin binding | did not show binding |  |  |  |  |  | + |  |  |  | 
6 | laminin-521: recombinant human full-length laminin isoform (BioLamina) |  |  |  |  |  |  |  |  |  |  |  |  | Kd (PDGF-BB [9]): 24.2 nM; Kd (PlGF-2 [10]): 12.9 nM
